Data from patent publication US20240148672A1, “ORAL THIN FILM” (LTS LOHMANN THERAPIE-SYSTEME AG, priority 2021, published 2024).
Counter-ions that a name gives are not always drawn.

How the values were obtained:
[1] = (S)-ketamine versus (R) form; cited from earlier work
[2] = pH value of oral thin film dissolved in demineralised water; assay type: physicochemical; conditions: Measured as dissolved OTF in demineralised water temperature-controlled to 32° C. (blank value pH 7.12)
Description: Oral thin films of the composition according to Table 1 were prepared as follows. The active ingredient or the active ingredient mixture was presented and an aqueous solution of the matrix polymer was added. The remaining ingredients were then stirred in. The solution was spread and dried in order to obtain an oral thin film.

CNC1(c2ccccc2Cl)CCCCC1=O (racemic) [(S)-ketamine, (S)-(±)-2-(2-chlorophenyl)-2-(methylamino)cyclohexan-1-one]
analgesic and anaesthetic potency relative to the (R) form [1]: approximately three times higher

CNC1(c2ccccc2Cl)CCCCC1=O (centres unmarked) [ketamine hydrochloride]
pH-value [2]: 5.32
